In ChEMBL document CHEMBL1144525, “Prediction of binding for a kind of non-peptic HCV NS3 serine protease inhibitors from plants by molecular docking and MM-PBSA method” (Bioorg Med Chem, 2007):

Assay: Inhibition of HCV NS3 serine protease
Set-up: species or system Hepacivirus hominis

Row | Structure (SMILES) | IC50
1 | O=C(Oc1c(O)cc(C(=O)O[C@H]2[C@H](OC(=O)c3cc(O)c(O)c(O)c3)O[C@H](CO)[C@@H](OC(=O)c3cc(O)c(O)c(O)c3)[C@@H]2OC(=O)c2cc(O)c(O)c(O)c2)cc1O)c1cc(O)c(O)c(O)c1 | 0.66 µM
2 | O=C(Oc1cc(C(=O)O[C@@H]2O[C@H](CO)[C@@H](OC(=O)c3cc(O)c(O)c(O)c3)[C@H](OC(=O)c3cc(O)c(O)c(O)c3)[C@H]2OC(=O)c2cc(O)c(O)c(O)c2)cc(O)c1O)c1cc(O)c(O)c(O)c1 | 0.68 µM
3 | O=C(O[C@@H]1O[C@H](CO)[C@@H](OC(=O)c2cc(O)c(O)c(O)c2)[C@H](OC(=O)c2cc(O)c(O)c(O)c2)[C@H]1O)c1cc(O)c(O)c(O)c1 | 1 µM

More lines, in order of falling IC50, values ahead:

Row | IC50 | Structure (SMILES)
4 | 950 µM | O=C(OC[C@H]1O[C@@H](O)[C@H](O)[C@@H](OC(=O)c2cc(O)c(O)c(O)c2)[C@@H]1O)c1cc(O)c(O)c(O)c1
5 | 10.1 µM | O=C(OC[C@H]1O[C@@H](OC(=O)c2cc(O)c(O)c(O)c2)[C@H](O)[C@@H](OC(=O)c2cc(O)c(O)c(O)c2)[C@@H]1O)c1cc(O)c(O)c(O)c1
